The experiment concerns the target 5-hydroxytryptamine receptor 2A (Homo sapiens, UniProt P28223). The experiment can be described thus: FLIPR Calcium 6 Assay. The method, then: The dye is diluted with assay buffer (20mM HEPES in 1x HBSS, PH7.4); Probenecid was added to the final concentration of 5 mM; […]. Vortexed vigorously for 1-2 minutes. Medium is removed from cell plate by flicking the cell plate on towel papers. […] The cell plate is placed on plate shaker, the plate was agitated at 600rpm for 2 minutes. The plate is incubated at 37°C for 2 hours followed by additional 15-minute incubation at 25°C. 3*compound in assay buffer is prepared: a. Reference compounds are diluted to required concentration with DMSO. The compounds were added to a 384-well compound plate; b. Serial dilutions are performed; c. […] Add […] assay buffer to the compound plate; f.
5-hydroxytryptamine receptor 2A, sequence (P28223 whole entry): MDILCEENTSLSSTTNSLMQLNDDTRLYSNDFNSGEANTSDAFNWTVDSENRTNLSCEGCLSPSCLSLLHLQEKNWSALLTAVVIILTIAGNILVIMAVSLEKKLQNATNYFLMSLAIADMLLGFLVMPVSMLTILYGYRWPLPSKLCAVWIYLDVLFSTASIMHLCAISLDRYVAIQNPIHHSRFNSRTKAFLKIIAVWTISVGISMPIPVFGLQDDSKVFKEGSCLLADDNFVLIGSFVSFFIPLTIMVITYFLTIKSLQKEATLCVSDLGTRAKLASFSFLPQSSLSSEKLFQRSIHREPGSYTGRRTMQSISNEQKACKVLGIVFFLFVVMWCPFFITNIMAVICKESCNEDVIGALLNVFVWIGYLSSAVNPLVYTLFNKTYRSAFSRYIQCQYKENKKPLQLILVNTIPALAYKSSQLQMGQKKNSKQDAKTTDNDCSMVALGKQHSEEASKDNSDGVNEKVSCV
The EC50 is the concentration needed to bring the measured effect to its halfway point. For `CN(C)CCc1c[nH]c2ccccc12` [2-(1H-indol-3-yl)-N,N-dimethylethanamine], the EC50 was less than 10 µM.
Consider `CCCCC/C=C\C/C=C\CCCCCCCC(=O)N(C)CCc1c[nH]c2ccccc12` [WO2023019367, Compound I-1], for which the EC50 was greater than 30 µM.
The same measure for `CCCCC/C=C\C/C=C\CCCCCCCC(=O)N(C)CCc1c[nH]c2ccc(OC)cc12` [WO2023019367, Compound I-21]: greater than 30 µM; for `CCCCC/C=C\C/C=C\CCCCCCCC(=O)N1CCCC1Cc1c[nH]c2ccccc12` (centres undefined) [WO2023019367, Compound I-46]: greater than 30 µM.
The same measure for `CCCCC/C=C\C/C=C\CCCCCCCC(=O)N1CCCC1Cc1c[nH]c2ccc(OC)cc12` (centres undefined) [WO2023019367, Compound I-55]: greater than 30 µM.
As for `CCCCC/C=C\C/C=C\CCCCCCCC(=O)N1CCC(c2c[nH]c3ccc(OC)cc23)C1` (centres undefined) [WO2023019367, Compound I-81], the EC50 was greater than 30 µM.
In the case of `CCCCC/C=C\C/C=C\CCCCCCCC(=O)N1CCC(c2c[nH]c3ccccc23)C1` (centres undefined) [WO2023019367, Compound I-84] it was greater than 30 µM; in that of `CCCCC/C=C\C/C=C\CCCCCCCC(=O)N1CCC(c2c[nH]c3ccccc23)CC1` [WO2023019367, Compound I-87], greater than 30 µM.
In the case of `CCCCC/C=C\C/C=C\CCCCCCCC(=O)N1CCC(c2c[nH]c3ccc(OC)cc23)CC1` [WO2023019367, Compound I-88] it was greater than 30 µM.

Values taken from BindingDB's records for patent WO2023019327 (Mindset Pharma, 2023).
